Reference: patent US8476298B2 (Exelixis, Inc., priority 2003, dated 2013)
Like-named read-outs stand apart in the source and are kept apart here.

Assays:
[1] = biological target: c-Kit kinase (Homo sapiens, UniProt P10721); experiment: c-Kit AlphaScreen kinase assay; format: biochemical;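 note: c-Kit kinase phosphorylating biotinylated poly(Glu,Tyr), ATP near its KM, 1 h reaction at ambient temperature, AlphaScreen chemiluminescence with streptavidin donor and anti-phosphotyrosine acceptor beads, 10-point inhibitor titration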
c-Kit kinase, sequence (P10721 26-976): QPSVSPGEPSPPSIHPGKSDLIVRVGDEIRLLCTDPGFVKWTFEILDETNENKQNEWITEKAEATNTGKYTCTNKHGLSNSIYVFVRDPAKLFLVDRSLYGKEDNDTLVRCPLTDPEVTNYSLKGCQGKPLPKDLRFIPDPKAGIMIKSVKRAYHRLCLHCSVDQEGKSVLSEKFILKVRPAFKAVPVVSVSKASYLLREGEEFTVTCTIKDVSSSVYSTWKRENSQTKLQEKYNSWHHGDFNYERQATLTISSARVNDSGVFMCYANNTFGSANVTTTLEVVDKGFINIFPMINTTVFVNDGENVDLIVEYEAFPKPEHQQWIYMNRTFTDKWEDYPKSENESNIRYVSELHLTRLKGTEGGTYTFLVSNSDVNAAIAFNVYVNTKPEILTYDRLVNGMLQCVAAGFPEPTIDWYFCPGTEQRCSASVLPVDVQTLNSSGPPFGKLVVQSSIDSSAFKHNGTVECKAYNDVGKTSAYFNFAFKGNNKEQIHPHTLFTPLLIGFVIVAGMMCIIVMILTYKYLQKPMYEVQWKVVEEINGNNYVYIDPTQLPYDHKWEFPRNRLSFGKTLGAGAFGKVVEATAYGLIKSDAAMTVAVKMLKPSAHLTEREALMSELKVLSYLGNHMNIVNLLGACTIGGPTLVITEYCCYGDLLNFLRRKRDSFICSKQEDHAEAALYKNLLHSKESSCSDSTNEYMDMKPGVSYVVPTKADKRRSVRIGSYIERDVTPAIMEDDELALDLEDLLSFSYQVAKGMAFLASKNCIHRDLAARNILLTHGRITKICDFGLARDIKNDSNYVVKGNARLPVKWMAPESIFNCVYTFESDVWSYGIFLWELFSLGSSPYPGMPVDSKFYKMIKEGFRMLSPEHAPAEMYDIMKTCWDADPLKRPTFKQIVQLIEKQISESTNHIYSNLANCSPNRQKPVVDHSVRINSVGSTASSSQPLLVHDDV

[2] = biological target: T1, c-Met (baculovirus expressed human c-Met kinase domain P948-S1343) (Homo sapiens, UniProt P08581); experiment: c-Met Luciferase-Coupled Chemiluminescent Kinase assay (LCCA); format: biochemical;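 note: kinase activity read as percent ATP left after reaction, by luciferase-luciferin chemiluminescence, with 1 µM ATP and 1 µM poly-EY substrate, 2 h at ambient temperature, 10-point dose-response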
T1 construct: human c-Met kinase domain P948-S1343; host or cells: baculovirus expression
T1 sequence (P08581 1011-1343 limits assumed): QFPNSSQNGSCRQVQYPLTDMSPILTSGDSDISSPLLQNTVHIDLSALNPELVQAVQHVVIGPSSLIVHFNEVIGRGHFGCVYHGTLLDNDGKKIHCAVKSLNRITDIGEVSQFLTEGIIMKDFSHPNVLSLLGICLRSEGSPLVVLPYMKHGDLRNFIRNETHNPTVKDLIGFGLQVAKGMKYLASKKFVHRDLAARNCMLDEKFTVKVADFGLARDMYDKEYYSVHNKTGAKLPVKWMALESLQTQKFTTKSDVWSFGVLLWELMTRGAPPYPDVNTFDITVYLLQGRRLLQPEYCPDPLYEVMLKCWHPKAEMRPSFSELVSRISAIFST

[3] = biological target: T2, Flt-3 (baculovirus expressed human Flt-3 kinase domain R571-S993) (Homo sapiens, UniProt P36888); experiment: biochemical; conditions: read-out: flt3 IC50;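 note: Luciferase-coupled chemiluminescent kinase assay, activity read as percent ATP left after a 3 h reaction at room temperature, ATP near KM, 10-point dose-response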
T2 construct: human Flt-3 kinase domain R571-S993; host or cells: baculovirus expression
T2 sequence (P36888 571-993): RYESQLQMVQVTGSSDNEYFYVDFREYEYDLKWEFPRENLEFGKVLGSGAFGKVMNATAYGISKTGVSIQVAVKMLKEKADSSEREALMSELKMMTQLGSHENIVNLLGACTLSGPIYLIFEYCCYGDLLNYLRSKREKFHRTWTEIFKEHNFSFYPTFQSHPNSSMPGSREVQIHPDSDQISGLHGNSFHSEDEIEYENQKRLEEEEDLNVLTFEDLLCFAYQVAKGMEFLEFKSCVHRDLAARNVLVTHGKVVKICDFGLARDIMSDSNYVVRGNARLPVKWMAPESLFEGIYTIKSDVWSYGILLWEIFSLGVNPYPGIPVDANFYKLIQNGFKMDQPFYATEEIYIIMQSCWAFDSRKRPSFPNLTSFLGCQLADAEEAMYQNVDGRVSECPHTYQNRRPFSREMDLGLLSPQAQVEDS

[4] = biological target: T3, KDR (baculovirus expressed human KDR kinase domain D807-V1356) (Homo sapiens, UniProt P35968); experiment: biochemical;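 note: Luciferase-coupled chemiluminescent kinase assay, activity read as percent ATP left after 4 h reaction at ambient temperature, ATP near KM, 10-point dose-response in 384-well plates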
T3 construct: human KDR kinase domain D807-V1356; host or cells: baculovirus expression
T3 sequence (P35968 807-1356): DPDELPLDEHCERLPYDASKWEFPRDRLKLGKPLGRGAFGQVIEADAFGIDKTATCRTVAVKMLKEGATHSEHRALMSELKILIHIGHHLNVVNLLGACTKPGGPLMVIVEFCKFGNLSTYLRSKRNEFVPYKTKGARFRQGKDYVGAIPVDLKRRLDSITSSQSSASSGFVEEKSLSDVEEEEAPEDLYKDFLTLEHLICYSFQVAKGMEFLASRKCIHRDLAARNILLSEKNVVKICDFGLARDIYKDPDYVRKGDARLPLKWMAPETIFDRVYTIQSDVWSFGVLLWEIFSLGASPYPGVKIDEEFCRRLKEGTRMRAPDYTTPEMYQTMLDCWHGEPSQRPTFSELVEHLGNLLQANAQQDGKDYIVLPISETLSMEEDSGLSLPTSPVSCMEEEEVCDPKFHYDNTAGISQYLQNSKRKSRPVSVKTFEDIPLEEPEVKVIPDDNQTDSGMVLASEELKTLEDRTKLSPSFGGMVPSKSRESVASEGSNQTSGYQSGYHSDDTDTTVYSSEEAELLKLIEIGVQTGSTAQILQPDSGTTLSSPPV

[5] = Table 4, inhibition as IC50 class

SMILES | IC50 [2] [nM] | IC50 [3] [nM] | IC50 [4] [nM] | other results
COc1cc2nccc(Oc3ccc(NC(=O)C(=O)NCc4ccccc4)cc3F)c2cc1OC [Entry 12] |  |  |  | IC50 [1]: 50 to 500 nM
COc1cc2nccc(Oc3ccc(NC(=O)C(=O)NCCC4CCCN4C)cc3F)c2cc1OC (stereo not shown) [Entry 72] | 500 to 5000 | 500 to 5000 |  | IC50 [1]: 500 to 5000 nM
COc1cc2c(Oc3ccc(NC(=O)C(=O)NCCc4cccc(Cl)c4)cc3F)ccnc2cc1OCC1CCNCC1 [Example 149, N-[2-(3-Chloro-phenyl)-ethyl]-N′-{3-fluoro-4-[6-methoxy-7-{piperidin-4-ylmethoxy)-quinolin-4-yloxy]-phenyl}-oxalamide] |  |  |  | IC50 [1]: < 50 nM
CCOc1ccc(CCNC(=O)C(=O)Nc2ccc(Oc3ccnc4cc(OCC5CCNCC5)c(OC)cc34)c(F)c2)cc1 [Example 167, N-[2-(4-Ethoxy-phenyl)-ethyl]-N′-{3-fluoro-4-[6-methoxy-7-(piperidin-4-ylmethoxy)-quinolin-4-yloxy]-phenyl}-oxalamide] |  |  |  | IC50 [1, 5]: 50 to 500 nM
COc1cc2c(Oc3ccc(NC(=O)C(=O)NC4CCc5ccccc54)cc3F)ccnc2cc1OCC1CCNCC1 (stereo not shown) [Example 177, N-{3-Fluoro-4-[6-methoxy-7-(piperidin-4-ylmethoxy)-quinolin-4-yloxy]-phenyl}-N′-indan-1-yl-oxalamide] |  |  |  | IC50 [1, 5]: < 50 nM
COc1cc2c(Oc3ccc(NC(=O)C(=O)N[C@@H](C)c4ccccc4)cc3F)ccnc2cc1OCC1CCNCC1 [Example 184, N-{3-Fluoro-4-[6-methoxy-7-(piperidin-4-ylmethoxy)-quinolin-4-yloxy]-phenyl}-N′-(1S-phenyl-ethyl)-oxalamide] |  |  |  | IC50 [1, 5]: < 50 nM
COc1cc2c(Oc3ccc(NC(=O)C(=O)NCCc4ccc(Cl)c(Cl)c4)cc3F)ccnc2cc1OCC1CCNCC1 [Example 223, N-[2-(3,4-dichlorophenyl)ethyl]-N′-[3-fluoro-4-({6-(methyloxy)-7-[(piperidin-4-ylmethyl)oxy]quinolin-4-yl}oxy)phenyl]ethanediamide] |  |  |  | IC50 [2, 5]: < 50 nM; IC50 [3, 5]: < 50 nM; IC50 [1, 5]: < 50 nM; IC50 [4, 5]: < 50 nM
COc1cc2nccc(Oc3ccc(NC(=O)C(=O)NCC(c4ccccc4)N(C)C)cc3F)c2cc1OC (stereo not shown) [Example 235, N-(4-{[6,7-bis(methyloxy)quinolin-4-yl]oxy}-3-fluorophenyl)-N′-[2-(dimethylamino)-2-phenylethyl]ethanediamide] |  |  |  | IC50 [2, 5]: 50 to 500 nM; IC50 [3, 5]: < 50 nM; IC50 [1, 5]: 50 to 500 nM; IC50 [4, 5]: 50 to 500 nM
COc1cc2c(Oc3ccc(NC(=O)C4(C(=O)Nc5ccc(F)cc5)CCC4)cc3F)ccnc2cc1OCCCN1CCN(C)CC1 [Example 385, N-{3-fluoro-4-[(6-(methyloxy)-7-{[3-(4-methylpiperazin-1-yl)propyl]oxy}quinolin-4-yl)oxy]phenyl}-N′-(4-fluorophenyl)cyclobutane-1,1-dicarboxamide] | < 50 | 500 to 5000 | < 50 | 
CCN(CC)CCCOc1cc2ncnc(Oc3ccc(NC(=O)[C@]4(C(=O)Nc5ccc(F)cc5)C[C@H]4C)cc3F)c2cc1OC [Example 386, (1R,2R)-N-(4-{[7-{[3-(diethylamino)propyl]oxy}-6-(methyloxy)quinazolin-4-yl]oxy}-3-fluorophenyl)-N′-(4-fluorophenyl)-2-methylcyclopropane-1,1-dicarboxamide] | < 50 | < 50 | < 50 | 
COc1cc2c(Oc3ccc(NC(=O)[C@]4(C(=O)Nc5ccc(F)cc5)C[C@H]4C)cc3F)ncnc2cc1OCCCN1CCN(C)CC1 [Example 387, (1R,2R)-N-{3-fluoro-4-[(6-(methyloxy)-7-{[3-(4-methylpiperazin-1-yl)propyl]oxy}quinazolin-4-yl)oxy]phenyl}-N′-(4-fluorophenyl)-2-methylcyclopropane-1,1-dicarboxamide] | < 50 | < 50 | < 50 | 
CCN(CC)CCOc1cc2ncnc(Oc3ccc(NC(=O)C4(C(=O)Nc5ccc(F)cc5)[C@H](C)[C@H]4C)cc3F)c2cc1OC (stereo partly drawn) [Example 388, (2R,3R)-N-(4-{[7-{[2-(diethylamino)ethyl]oxy}-6-(methyloxy)quinazolin-4-yl]oxy}-3-fluorophenyl)-N′-(4-fluorophenyl)-2,3-dimethylcyclopropane-1,1-dicarboxamide] | 50 to 500 | 500 to 5000 | < 50 | 
CCN(CC)CCCOc1cc2ncnc(Oc3ccc(NC(=O)C4(C(=O)Nc5ccc(F)cc5)[C@H](C)[C@H]4C)cc3F)c2cc1OC (stereo partly drawn) [Example 389, (2R,3R)-N-(4-{[7-{[3-(diethylamino)propyl]oxy}-6-(methyloxy)quinazolin-4-yl]oxy}-3-fluorophenyl)-N′-(4-fluorophenyl)-2,3-dimethylcyclopropane-1,1-dicarboxamide] | < 50 | 50 to 500 | < 50 | 
COc1cc2c(Oc3ccc(NC(=O)[C@]4(C(=O)Nc5ccc(F)cc5)C[C@H]4C)cc3F)ncnc2cc1OCCCN1CCNCC1 [Example 390, (1R,2R)-N-[3-fluoro-4-({6-(methyloxy)-7-[(3-piperazin-1-ylpropyl)oxy]quinazolin-4-yl}oxy)phenyl]-N′-(4-fluorophenyl)-2-methylcyclopropane-1,1-dicarboxamide] | < 50 | < 50 | < 50 | 
CCN(CC)CCOc1cc2nccc(Oc3ccc(NC(=O)C4(C(=O)Nc5ccc(F)cc5)[C@H](C)[C@H]4C)cc3F)c2cc1OC (stereo partly drawn) [Example 391, (2R,3R)-N-(4-{[7-{[2-(diethylamino)ethyl]oxy}-6-(methyloxy)quinolin-4-yl]oxy}-3-fluorophenyl)-N′-(4-fluorophenyl)-2,3-dimethylcyclopropane-1,1-dicarboxamide] | < 50 | 50 to 500 | < 50 | 

Second part, led by results:

IC50 [2] [nM] | IC50 [3] [nM] | IC50 [4] [nM] | SMILES | other results
< 50 | 500 to 5000 | < 50 | CCN(CC)CCCOc1cc2nccc(Oc3ccc(NC(=O)C4(C(=O)Nc5ccc(F)cc5)CCC4)cc3F)c2cc1OC [Example 384, N-(4-{[7-{[3-(diethylamino)propyl]oxy}-6-(methyloxy)quinolin-4-yl]oxy}-3-fluorophenyl)-N′-(4-fluorophenyl)cyclobutane-1,1-dicarboxamide] | 
50 to 500 | < 50 | 50 to 500 | COc1cc2nccc(Oc3ccc(NC(=O)C4(C(=O)NCc5ccc(F)cc5)CC4)cc3)c2cc1OC [Example 392, N-(4-{[6,7-bis(methyloxy)quinolin-4-yl]oxy}phenyl)-N′-[(4-fluorophenyl)methyl]cyclopropane-1,1-dicarboxamide] | 
500 to 5000 | 50 to 500 | > 5000 | COc1cc2nccc(Oc3ccc(NC(=O)C4(C(=O)NCCN5CCOCC5)CC4)cc3)c2cc1OC [Example 393, N-(4-{[6,7-bis(methyloxy)quinolin-4-yl]oxy}phenyl)-N′-(2-morpholin-4-ylethyl)cyclopropane-1,1-dicarboxamide] | 
50 to 500 | 50 to 500 | > 5000 | COc1cc2nccc(Oc3ccc(NC(=O)C4(C(=O)Nc5ccccc5CN5CCCCC5)CC4)cc3)c2cc1OC [Example 394, N-(4-{[6,7-bis(methyloxy)quinolin-4-yl]oxy}phenyl)-N′-[2-(piperidin-1-ylmethyl)phenyl]cyclopropane-1,1-dicarboxamide] | 
50 to 500 | 50 to 500 | 500 to 5000 | COc1cc2nccc(Oc3ccc(NC(=O)C4(C(=O)Nc5ccccc5CN5CCCC5)CC4)cc3)c2cc1OC [Example 395, N-(4-{[6,7-bis(methyloxy)quinolin-4-yl]oxy}phenyl)-N′-[2-(pyrrolidin-1-ylmethyl)phenyl]cyclopropane-1,1-dicarboxamide] | 
50 to 500 | < 50 | < 50 | COc1cc2nccc(Oc3ccc(NC(=O)C4(C(=O)Nc5cccc(CN6CCOCC6)c5)CC4)cc3)c2cc1OC [Example 396, N-(4-{[6,7-bis(methyloxy)quinolin-4-yl]oxy}phenyl)-N′-[3-(morpholin-4-ylmethyl)phenyl]cyclopropane-1,1-dicarboxamide] | 
50 to 500 | 50 to 500 | 500 to 5000 | COc1cc2nccc(Oc3ccc(NC(=O)C4(C(=O)Nc5ccccc5CN5CCOCC5)CC4)cc3)c2cc1OC [Example 397, N-(4-{[6,7-bis(methyloxy)quinolin-4-yl]oxy}phenyl)-N′-[2-(morpholin-4-ylmethyl)phenyl]cyclopropane-1,1-dicarboxamide] | 
< 50 | < 50 | < 50 | COc1cc2nccc(Oc3ccc(NC(=O)C4(C(=O)Nc5ccccc5)CC4)cc3)c2cc1OC [Example 398, N-(4-{[6,7-bis(methyloxy)quinolin-4-yl]oxy}phenyl)-N′-phenylcyclopropane-1,1-dicarboxamide] | 
50 to 500 | 50 to 500 | < 50 | COc1cc2nccc(Oc3ccc(NC(=O)C4(C(=O)Nc5cccc(CN)c5)CC4)cc3)c2cc1OC [Example 399, N-[3-(aminomethyl)phenyl]-N′-(4-{[6,7-bis(methyloxy)quinolin-4-yl]oxy}phenyl)cyclopropane-1,1-dicarboxamide] | 
